From patent US12540141B2, “Spiropyrrolidine derived antiviral agents” (priority 2020, dated 2026) come the findings set out here.

The test deals with SARS-CoV-2 3CL-protease (Severe acute respiratory syndrome coronavirus 2, UniProt P0DTD1). Kind of test: SARS-CoV-2 3C-Like (3CL) Protease Fluorescence Assay (FRET). Type of test: biochemical. The settings on record: SARS-CoV-2 3CL-protease 10 nM, 30 min preincubation at RT, substrate 40 μM.
With `Cc1ccc2cc(C(=O)N(C)[C@@H](CC(C)C)C(=O)N3C[C@]4(C[C@H]3C#N)C(=O)Nc3ccccc34)cc(OC3CC3)c2n1` [Example 321], the IC50 is under 100 nM.

Consider `CNCCC(=O)N(C)[C@@H](CC(C)(C)F)C(=O)N1C[C@]2(C[C@H]1C#N)C(=O)Nc1ccccc12` [Example 543], for which the IC50 was under 100 nM.

`CC(C)(C)C[C@H](NC(=O)Nc1ccc(F)cc1)C(=O)N1C[C@]2(C[C@H]1C#N)C(=O)Nc1ccccc12` [Example 441] yielded an IC50 of 100 to 1000 nM.

On to `CC(C)C[C@@H](C(=O)N1C[C@]2(C[C@H]1C#N)C(=O)Nc1ccccc12)N(C)C(=O)c1cccc2ccccc12` [Example 241], for which the IC50 was under 100 nM.

`Cc1cccc(C(F)(F)C(=O)N(C)[C@@H](CC(C)(C)F)C(=O)N2C[C@]3(C[C@H]2C#N)C(=O)Nc2ccc(Cl)cc23)n1` [Example 486] showed an IC50 of under 100 nM.

The compound `CN(C(=O)c1cn(C2CCC2)nn1)[C@@H](Cc1ccccc1)C(=O)N1C[C@]2(C[C@H]1C#N)C(=O)Nc1ccccc12` [Example 358] had an IC50 of under 100 nM.

In turn, `CC(C)C[C@@H](C(=O)N1C[C@]2(C[C@H]1C#N)C(=O)Nc1ccccc12)N(C)C(=O)c1nc2cc(F)ccc2[nH]1` [Example 250] showed an IC50 of under 100 nM.

`N#C[C@@H]1C[C@@]2(CN1C(=O)[C@H](CC1CC1)NC(=O)OCc1c(F)cccc1F)C(=O)Nc1ccc(Cl)cc12` [Example 492, 2,6-difluorobenzyl ((S)-1-((3R,5′S)-5-chloro-5′-cyano-2-oxospiro[indoline-3,3′-pyrrolidin]-1′-yl)-3-cyclopropyl-1-oxopropan-2-yl)carbamate]: the half-inhibitory concentration (IC50) was under 100 nM.

`C[C@@H]1COC[C@H](C)N1CCC(=O)N(C)[C@@H](CC(C)(C)F)C(=O)N1C[C@]2(C[C@H]1C#N)C(=O)Nc1ccccc12` [Example 546] yielded an IC50 of under 100 nM.

The compound `CN(C(=O)Cc1cccnc1)[C@@H](CC(C)(C)F)C(=O)N1C[C@]2(C[C@H]1C#N)C(=O)Nc1ccc(Cl)cc12` [Example 476] displayed an IC50 of under 100 nM.

`CC(C)C[C@@H](C(=O)N1C[C@]2(C[C@H]1C#N)C(=O)Nc1ccccc12)N(C)C(=O)c1cccc(-c2cccc(Cl)c2)c1` [Example 266] registered an IC50 of 100 to 1000 nM.

The compound `CC(C)(C)C[C@H](NC(=O)Nc1ccccc1)C(=O)N1C[C@]2(C[C@H]1C#N)C(=O)Nc1ccccc12` [Example 435] showed an IC50 of 100 to 1000 nM.

Compound `CC(C)C[C@@H](C(=O)N1C[C@]2(C[C@H]1C#N)C(=O)Nc1ccccc12)N(C)C(=O)c1cc(Cl)c2ncc(C3CC3)cc2c1` [Example 239] registered an IC50 of 100 to 1000 nM.

With `CC(C)(C)C[C@H](NC(=O)c1cn(C2CCC2)nn1)C(=O)N1C[C@]2(C[C@H]1C#N)C(=O)Nc1ccccc12` [Example 148], the IC50 is under 100 nM.

On to `CN(C(=O)[C@H](O)Cc1ccc(F)cc1)[C@@H](CC1CC1)C(=O)N1C[C@]2(C[C@H]1C#N)C(=O)Nc1ccccc12` [Example 423], for which the IC50 is under 100 nM.

The compound `CC(C)C[C@@H](C(=O)N1C[C@]2(C[C@H]1C#N)C(=O)Nc1ccccc12)N(C)C(=O)c1ccc(F)cn1` [Example 198] gave an IC50 of 100 to 1000 nM.

`CC(C)C[C@@H](C(=O)N1C[C@]2(C[C@H]1C#N)C(=O)Nc1ccccc12)N(C)C(=O)c1cc2ccc(C(F)(F)F)cc2[nH]1` [Example 331] displayed an IC50 of under 100 nM.

As for `CC(C)C[C@@H](C(=O)N1C[C@]2(C[C@H]1C(=O)CCl)C(=O)Nc1ccccc12)N(C)C(=O)c1cc2c(F)cc(F)c(F)c2[nH]1` [Example 159], the IC50 was over 1000 nM.

In turn, `CC(C)C[C@@H](C(=O)N1C[C@]2(C[C@H]1C#N)C(=O)Nc1ccccc12)N(C)C(=O)c1cc2ccc(Br)cc2cn1` [Example 236] yielded an IC50 of 100 to 1000 nM.

Consider `CC(C)C[C@@H](C(=O)N1C[C@]2(C[C@H]1C#N)C(=O)Nc1ccccc12)N(C)C(=O)COc1ccccc1` [Example 229], for which the IC50 was under 100 nM.

The compound `CC(C)C[C@H](NC(=O)c1cc2c(F)cccc2[nH]1)C(=O)N1C[C@]2(C[C@H]1C#N)C(=O)Nc1cc(F)ccc12` [Example 530] gave an IC50 of under 100 nM.

In turn, `N#C[C@@H]1C[C@@]2(CN1C(=O)[C@H](Cc1ccc(F)cc1)NC(=O)c1cc3c(F)cc(F)cc3[nH]1)C(=O)Nc1ccc(Cl)cc12` [Example 452] registered a half-maximal inhibitory concentration (IC50) of under 100 nM.

As to `CN(C)CCC(=O)N(C)[C@@H](CC(C)(C)F)C(=O)N1C[C@]2(C[C@H]1C#N)C(=O)Nc1ccccc12` [Example 539, N—((S)-1-((3R,5′S)-5′-cyano-2-oxospiro[indoline-3,3′-pyrrolidin]-1′-yl)-4-fluoro-4-methyl-1-oxopentan-2-yl)-3-(dimethylamino)-N-methylpropanamide], the IC50 was under 100 nM.

Regarding `CC(C)C[C@@H](C(=O)N1C[C@]2(C[C@H]1C#N)C(=O)Nc1ccccc12)N(C)C(=O)c1cc(OC2CC2)c2ncc(C3CC3)cc2c1` [Example 324], the IC50 lay within 100 to 1000 nM.

Compound `CC(C)C[C@@H](C(=O)N1C[C@]2(C[C@H]1C#N)C(=O)Nc1ccccc12)N(C)C(=O)[C@H]1CCN(C(=O)OC(C)(C)C)C1` [Example 344] returned an IC50 of 100 to 1000 nM.

Take `CC(C)C[C@@H](C(=O)N1C[C@]2(C[C@H]1C#N)C(=O)Nc1ccccc12)N(C)C(=O)c1cccc(-c2ccccc2F)c1` [Example 264]: the IC50 lay within 100 to 1000 nM.

`CC(C)C[C@@H](C(=O)N1C[C@]2(C[C@H]1C#N)C(=O)Nc1ccccc12)N(C)C(=O)c1ccnc2ccc(F)cc12` [Example 305] displayed an IC50 of under 100 nM.

Compound `COc1cccc(CN(C(=O)C(F)(F)F)[C@@H](CC(C)C)C(=O)N2C[C@]3(C[C@H]2C#N)C(=O)Nc2ccccc23)c1` [Example 430] yielded an IC50 of over 1000 nM.

On to `Cc1cccc2c1NC(=O)[C@]21C[C@@H](C#N)N(C(=O)[C@H](CC(C)C)NC(=O)c2cc3c(F)cccc3[nH]2)C1` [Example 534], for which the IC50 is under 100 nM.

`CC(C)C[C@@H](C(=O)N1C[C@]2(C[C@H]1C#N)C(=O)Nc1ccc(N=[N+]=[N-])cc12)N(C)C(=O)c1cc2c(F)cc(F)cc2[nH]1` [Example 503, N—((S)-1-((3R,5′S)-5-azido-5′-cyano-2-oxospiro[indoline-3,3′-pyrrolidin]-1′-yl)-4-methyl-1-oxopentan-2-yl)-4,6-difluoro-N-methyl-1H-indole-2-carboxamide] came in with an IC50 of under 100 nM.

`CC(C)C[C@@H](C(=O)N1C[C@]2(C[C@H]1C#N)C(=O)Nc1ccccc12)N(C)C(=O)c1ccc2ncccc2c1F` [Example 330] returned an IC50 of under 100 nM.

For `N#C[C@@H]1C[C@@]2(CN1C(=O)[C@H](CC1CC1)NC(=O)c1c(Cl)cccc1Cl)C(=O)Nc1ccc(F)cc12` [Example 522], the IC50 lay within 100 to 1000 nM.

As to `CC(C)C[C@@H](C(=O)N1C[C@]2(C[C@H]1C#N)C(=O)Nc1ccccc12)N(C)C(=O)CCc1ccccc1` [Example 227], the IC50 was under 100 nM.

`CC(C)C[C@@H](C(=O)N1C[C@]2(C[C@H]1C#N)C(=O)Nc1ccccc12)N(C)C(=O)c1ccc2ncccc2c1` [Example 210] yielded an IC50 of under 100 nM.

Compound `CC(C)C[C@@H](C(=O)N1C[C@]2(C[C@H]1C#N)C(=O)Nc1ccccc12)N(C)C(=O)c1n[nH]c(-c2ccccc2)n1` [Example 288] showed an IC50 of 100 to 1000 nM.

Turning to `CC(C)C[C@@H](C(=O)N1C[C@]2(C[C@H]1C#N)C(=O)Nc1ccccc12)N(C)C(=O)c1ccc2nn(C3CC3)cc2c1` [Example 339], the IC50 fell in the range of 100 to 1000 nM.

`CN(C(=O)c1cc2cnccc2[nH]1)[C@@H](CC1CC1)C(=O)N1C[C@]2(C[C@H]1C#N)C(=O)Nc1ccc(Cl)cc12` [Example 457] displayed an IC50 of under 100 nM.
